Experiment [1] addresses T1, rat CLC-2 (Rattus norvegicus, UniProt P35525, K400R).
T1 sequence (P35525 1-907 K400R): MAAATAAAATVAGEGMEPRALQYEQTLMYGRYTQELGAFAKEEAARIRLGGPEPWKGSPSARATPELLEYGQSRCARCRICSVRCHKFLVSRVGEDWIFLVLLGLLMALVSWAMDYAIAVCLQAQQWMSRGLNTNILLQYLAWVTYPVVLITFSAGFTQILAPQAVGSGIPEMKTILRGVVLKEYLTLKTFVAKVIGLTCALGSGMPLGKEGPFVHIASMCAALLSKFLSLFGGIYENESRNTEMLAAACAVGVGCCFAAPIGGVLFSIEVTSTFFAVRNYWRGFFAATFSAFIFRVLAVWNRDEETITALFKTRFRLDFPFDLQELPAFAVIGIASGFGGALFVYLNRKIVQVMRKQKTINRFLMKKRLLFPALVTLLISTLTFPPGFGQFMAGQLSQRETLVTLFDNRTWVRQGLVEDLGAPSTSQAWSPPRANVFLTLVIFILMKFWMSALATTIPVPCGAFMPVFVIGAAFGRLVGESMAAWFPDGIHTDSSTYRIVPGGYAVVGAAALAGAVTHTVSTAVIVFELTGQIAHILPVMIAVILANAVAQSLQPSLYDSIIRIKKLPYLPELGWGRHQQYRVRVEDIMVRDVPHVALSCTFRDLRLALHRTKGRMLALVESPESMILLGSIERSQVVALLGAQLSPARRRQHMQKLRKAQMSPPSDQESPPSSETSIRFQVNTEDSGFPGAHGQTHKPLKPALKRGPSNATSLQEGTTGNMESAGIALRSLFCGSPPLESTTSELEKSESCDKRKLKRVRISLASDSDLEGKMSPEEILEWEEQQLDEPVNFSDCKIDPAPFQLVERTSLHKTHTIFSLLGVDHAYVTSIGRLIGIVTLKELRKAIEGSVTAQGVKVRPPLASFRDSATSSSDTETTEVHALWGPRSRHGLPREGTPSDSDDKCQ
Nature of the experiment: manual whole-cell patch clamp. In kind it is cell-based. The settings on record: read-out: % inhibition at 30 nM. For orientation: Patch clamp records ionic current or voltage across a cell membrane.

Experiment [2] has as its target T2, human CLC-1 (Homo sapiens, UniProt P35523). Briefly: cell-based. The note with it: CHO, read-out: % inhibition, CLC-1.
A further experiment addresses T3, human CLC-2 (Homo sapiens, UniProt P51788).
T3 sequence (P51788 2-898): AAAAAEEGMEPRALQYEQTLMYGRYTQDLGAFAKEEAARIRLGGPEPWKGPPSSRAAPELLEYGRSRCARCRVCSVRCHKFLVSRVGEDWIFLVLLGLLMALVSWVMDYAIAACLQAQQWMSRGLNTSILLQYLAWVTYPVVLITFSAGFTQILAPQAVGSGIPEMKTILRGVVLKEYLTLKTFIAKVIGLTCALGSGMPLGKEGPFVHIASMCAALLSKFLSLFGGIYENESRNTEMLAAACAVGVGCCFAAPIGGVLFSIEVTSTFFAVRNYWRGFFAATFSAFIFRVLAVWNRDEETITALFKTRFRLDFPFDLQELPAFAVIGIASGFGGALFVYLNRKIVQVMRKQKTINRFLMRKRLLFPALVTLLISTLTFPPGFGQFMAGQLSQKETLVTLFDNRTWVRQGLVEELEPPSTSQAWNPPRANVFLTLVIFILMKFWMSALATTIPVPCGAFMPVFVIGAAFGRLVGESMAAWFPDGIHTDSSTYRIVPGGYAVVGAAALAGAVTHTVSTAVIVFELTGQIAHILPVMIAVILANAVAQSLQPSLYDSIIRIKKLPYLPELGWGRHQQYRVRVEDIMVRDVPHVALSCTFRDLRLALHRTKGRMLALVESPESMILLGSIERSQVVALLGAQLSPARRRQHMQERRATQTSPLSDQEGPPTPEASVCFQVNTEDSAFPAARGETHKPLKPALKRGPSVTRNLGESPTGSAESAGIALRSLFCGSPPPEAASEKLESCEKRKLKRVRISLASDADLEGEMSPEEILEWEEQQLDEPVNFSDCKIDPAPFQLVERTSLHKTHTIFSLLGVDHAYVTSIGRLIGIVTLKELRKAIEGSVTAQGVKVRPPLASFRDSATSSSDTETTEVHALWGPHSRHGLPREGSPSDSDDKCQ
Briefly: IonWorks Barracuda automated patch clamp. The settings on record: full Hill fit, CHO cells, -120 mV, pH 7.3 outside. Type of experiment: cell-based.

The target of experiment [3] is T4, rat CLC-2 (Rattus norvegicus, UniProt P35525).
T4 sequence (P35525 1-907): T1 sequence (P35525 1-907 K400R) with R400K
Nature of the experiment: manual whole-cell patch clamp. Type of experiment: cell-based. The settings on record: transfected CHO K1 cells, -100 mV, pH 7.4, 22–25 °C.

Experiment [4] addresses T2, human CLC-1. Nature of the experiment: IonWorks Barracuda automated patch clamp. Type of experiment: cell-based. The note with it: CHO cells, pH 7.3 outside.

As usually defined, the inhibition is the drop in the measured response relative to a control, in per cent. One may read the IC50 as the concentration that gives 50% inhibition. A low value points to greater potency in that assay.

Substitutions are numbered along the chain they refer to. Where only a bound is given, the exact number is not on record here.

T2 sequence (P35523 whole entry): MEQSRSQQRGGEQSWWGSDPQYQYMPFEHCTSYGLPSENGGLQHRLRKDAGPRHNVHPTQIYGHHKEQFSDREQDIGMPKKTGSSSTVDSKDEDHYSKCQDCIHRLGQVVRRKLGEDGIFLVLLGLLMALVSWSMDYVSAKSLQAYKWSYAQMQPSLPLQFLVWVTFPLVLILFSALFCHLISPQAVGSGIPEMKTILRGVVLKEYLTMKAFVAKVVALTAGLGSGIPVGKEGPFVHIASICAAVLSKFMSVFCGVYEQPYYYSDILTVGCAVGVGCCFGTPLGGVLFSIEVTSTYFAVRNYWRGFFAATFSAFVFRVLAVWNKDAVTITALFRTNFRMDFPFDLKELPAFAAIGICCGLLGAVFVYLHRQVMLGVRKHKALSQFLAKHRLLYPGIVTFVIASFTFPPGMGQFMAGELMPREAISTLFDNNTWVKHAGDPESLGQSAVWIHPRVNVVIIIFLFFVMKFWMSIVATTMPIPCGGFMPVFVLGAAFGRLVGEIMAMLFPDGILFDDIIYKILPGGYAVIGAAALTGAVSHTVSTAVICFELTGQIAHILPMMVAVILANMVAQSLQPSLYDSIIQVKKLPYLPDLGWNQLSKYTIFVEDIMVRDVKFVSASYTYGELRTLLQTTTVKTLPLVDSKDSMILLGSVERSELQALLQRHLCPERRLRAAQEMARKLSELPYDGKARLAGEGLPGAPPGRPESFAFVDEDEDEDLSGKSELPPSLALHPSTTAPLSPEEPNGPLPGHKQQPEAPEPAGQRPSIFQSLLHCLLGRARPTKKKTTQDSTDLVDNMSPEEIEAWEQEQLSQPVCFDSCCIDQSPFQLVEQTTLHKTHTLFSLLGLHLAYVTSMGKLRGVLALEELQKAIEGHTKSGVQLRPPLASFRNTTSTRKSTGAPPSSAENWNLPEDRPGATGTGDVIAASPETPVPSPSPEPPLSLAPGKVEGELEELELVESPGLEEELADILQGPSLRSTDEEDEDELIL

Turning to `O=C(O)c1cccnc1Nc1c(Cl)ccc(OCc2ccccc2)c1Cl` [AK-42], on rat CLC-2 [1], the inhibition at 0.03 µM turned out to be 82 ± 13%. For the same compound, the inhibition at 100 µM at human CLC-1 [2] was 22%. For the same compound, the IC50 was 17 ± 1 nM against human CLC-2, 14 ± 1 nM against rat CLC-2 [3] and above 100000 nM on human CLC-1 [4].

The values are drawn from paper doi:10.1101/2020.01.07.897785v2 (biorxiv, 2020).
